Source: patent US20040053918A1, “Erythropoietin production potentiator” (KOWA CO., LTD., priority 2002, published 2004)

What was measured:
Format in all cases: cell-based
Hep3B cells [1] = assay: EPO produced by Hep3B cells under 21% O2, ELISA of culture supernatant
Description: (§1) Hep3B cells, which produce EPO at a low O2 partial pressure, were cultured in an amount of 1.5-3.0×10^6 cells/petri dish (100 mm) by use of Dulbecco's modified eagles' medium (DMEM)/10% fetal calf serum (FCS) (10 ml). The next day, the culture liquid of each petri dish was renewed, and a predetermined amount of compound 1 was added thereto, followed by culture for 24 hours at 37° C. under 1% O2 or 21% O2. EPO contained in the resultant culture supernatant was measured through ELISA. Separately, EPO potentiator activity was measured in the following manner. The luciferase-pXP2 (serving as a reporter gene) of a Hep3B wild-type gene was ligated with an enhancer and potentiator fragment (144 bp), to thereby produce a modified Hep3B wild-type gene as Pwt. Hep3B cells were cultured in an amount of 1×10^6 cells/petri dish (30 mm) by use of 4-mL DMEM/10% FCS, and the above modified wild-type (2 μg) and β-galactosidase gene (1 μg) (serving as an internal standard) were inserted into each of the cultured cells through the lipofectin method. […] After completion of culture, luciferase activity and β-galactosidase activity of the resultant cell extract were determined. EPO potentiator activity is represented by the following formula.

[2] = tested on: EPO enhancer and potentiator fragment luciferase reporter in Hep3B cells; assay: EPO potentiator activity, luciferase reporter (Pwt) in Hep3B cells, hypoxic induction; details: control HI 52.2±10.7
Description: Hep3B cells, which produce EPO at a low O2 partial pressure, were cultured in an amount of 1.5-3.0×10^6 cells/petri dish (100 mm) by use of Dulbecco's modified eagles' medium (DMEM)/10% fetal calf serum (FCS) (10 ml). […] EPO contained in the resultant culture supernatant was measured through ELISA. Separately, EPO potentiator activity was measured in the following manner. The luciferase-pXP2 (serving as a reporter gene) of a Hep3B wild-type gene was ligated with an enhancer and potentiator fragment (144 bp), to thereby produce a modified Hep3B wild-type gene as Pwt. Hep3B cells were cultured in an amount of 1×10^6 cells/petri dish (30 mm) by use of 4-mL DMEM/10% FCS, and the above modified wild-type (2 μg) and β-galactosidase gene (1 μg) (serving as an internal standard) were inserted into each of the cultured cells through the lipofectin method. […] After completion of culture, luciferase activity and β-galactosidase activity of the resultant cell extract were determined. EPO potentiator activity is represented by the following formula.
HI (hypoxic induction)=(1% O2 luciferase/β-galactosidase)/(21% O2 luciferase/β-galactosidase)

Hep3B cells [3] = assay: EPO produced by Hep3B cells under 1% O2, ELISA of culture supernatant
Description: as §1

Q: For `COc1cc(C=CCCCN2CCCN(CCCC=Cc3cc(OC)c(OC)c(OC)c3)CC2)cc(OC)c1OC` [compound 1, N,N′-bis(5-(3,4,5-trimethoxyphenyl)-4-pentenyl)homopiperazine], which “amount of EPO” value (Hep3B cells [1]; 21% O2 (normal O2 partial pressure), 24 h, 10 μM compound 1, control 33.6±8.7) is on record?
A: 49.5±2.3 mU/protein μg

Q: And the “amount of EPO” value (Hep3B cells [1]; 21% O2, 24 h, 15 μM compound 1, control 33.6±8.7)?
A: 56.4±2.2 mU/protein μg

Q: And the “amount of EPO” value (Hep3B cells [1]; 21% O2, 24 h, 30 μM compound 1, control 33.6±8.7)?
A: 116.8±5.2 mU/protein μg

Q: What about the “HI (hypoxic induction), EPO potentiator activity” value ([2]; 10 μM compound 1 alone) of the same compound?
A: 91.0±36.6

Q: And the “HI (hypoxic induction), EPO potentiator activity” value ([2]; 10 μM compound 1 in the presence of 10^−3M L-NMMA)?
A: 63.4±7.5

Q: And the “amount of EPO” value (Hep3B cells [3]; 1% O2 (low O2 partial pressure), 24 h, 10 μM compound 1, control 39.5±9.1)?
A: 71.0±6.0 mU/protein μg

Q: What about the “amount of EPO” value (Hep3B cells [3]; 1% O2, 24 h, 15 μM compound 1, control 39.5±9.1) of the same compound?
A: 76.0±13.5 mU/protein μg

Q: And the “amount of EPO” value (Hep3B cells [3]; 1% O2, 24 h, 30 μM compound 1, control 39.5±9.1)?
A: 91.5±17.8 mU/protein μg
